What all share (test): filter binding kinase assay
Holding throughout (assay type): biochemical

The target of one assay is T1, EPHA2 (Homo sapiens, UniProt P29317).
T1 construct: purchased
As to conditions: derived from % inhibition at 1 μM. The method, boiled down:
(§1)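 Compound was pre-incubated with enzyme and substrate for 5 minutes at room temperature, then the reaction was started with ATP (added solution at 5, 20 or 50 […] depending on kinase). Orthophosphoric acid stopped it, and phosphorylated substrate captured on P81 filters was quantified by scintillation counting.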

The next assay has as its target T2, MAP3K11 (MLK3) (Homo sapiens, UniProt Q16584).
T2 construct: purchased
As to conditions: for IC50: derived from % inhibition at 1 μM. In outline:
as §1

The target in another assay is T3, MAPKAPK5 (Homo sapiens, UniProt Q8IW41).
T3 construct: purchased
T3 sequence (Q8IW41 1-473): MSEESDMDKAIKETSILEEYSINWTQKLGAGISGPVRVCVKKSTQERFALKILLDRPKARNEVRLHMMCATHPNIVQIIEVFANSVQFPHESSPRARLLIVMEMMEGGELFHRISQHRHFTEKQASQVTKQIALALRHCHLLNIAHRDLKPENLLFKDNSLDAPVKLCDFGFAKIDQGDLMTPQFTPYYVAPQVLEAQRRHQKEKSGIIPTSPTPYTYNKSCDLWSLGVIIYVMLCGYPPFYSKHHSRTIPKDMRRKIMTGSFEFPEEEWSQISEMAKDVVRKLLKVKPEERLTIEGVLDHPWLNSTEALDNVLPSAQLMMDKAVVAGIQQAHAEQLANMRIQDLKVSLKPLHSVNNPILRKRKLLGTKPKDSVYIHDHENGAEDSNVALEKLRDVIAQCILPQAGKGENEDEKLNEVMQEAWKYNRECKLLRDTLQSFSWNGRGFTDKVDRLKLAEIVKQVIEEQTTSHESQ
As to conditions: derived from % inhibition at 1 μM. The method, boiled down: as §1

For a further assay, the target named is T4, MET (Homo sapiens, UniProt P08581).
T4 construct: 6His (N); purchased Upstate 14-526; host or cells: insect cells (Sf21; S. frugiperda), baculovirus
As to conditions: derived from % inhibition at 1 μM. In outline: as §1

In a further assay the target is T5, MST4 (Homo sapiens, UniProt Q9P289).
T5 construct: purchased
As to conditions: derived from % inhibition at 1 μM. The method, boiled down: as §1

The target in another assay is T6, PAK4 (PAK-4) (Homo sapiens, UniProt O96013).
T6 construct: purchased
As to conditions: for IC50: derived from % inhibition at 1 μM. In outline: as §1

Another assay has as its target T7, PIM1 (Homo sapiens, UniProt P11309).
T7 construct: purchased
As to conditions: derived from % inhibition at 1 μM. The method, boiled down:
as §1

For a further assay, the target named is T8, PRKACA (Homo sapiens, UniProt P17612).
T8 construct: purchased
As to conditions: derived from % inhibition at 1 μM. In outline: as §1

The target in a further assay is T9, SRC (Homo sapiens, UniProt P12931).
T9 construct: purchased
Conditions: derived from % inhibition at 1 μM. The method, boiled down:
as §1

The target in another assay is T10, STK11 (Homo sapiens, UniProt Q15831).
T10 construct: purchased
T10 sequence (Q15831 1-433): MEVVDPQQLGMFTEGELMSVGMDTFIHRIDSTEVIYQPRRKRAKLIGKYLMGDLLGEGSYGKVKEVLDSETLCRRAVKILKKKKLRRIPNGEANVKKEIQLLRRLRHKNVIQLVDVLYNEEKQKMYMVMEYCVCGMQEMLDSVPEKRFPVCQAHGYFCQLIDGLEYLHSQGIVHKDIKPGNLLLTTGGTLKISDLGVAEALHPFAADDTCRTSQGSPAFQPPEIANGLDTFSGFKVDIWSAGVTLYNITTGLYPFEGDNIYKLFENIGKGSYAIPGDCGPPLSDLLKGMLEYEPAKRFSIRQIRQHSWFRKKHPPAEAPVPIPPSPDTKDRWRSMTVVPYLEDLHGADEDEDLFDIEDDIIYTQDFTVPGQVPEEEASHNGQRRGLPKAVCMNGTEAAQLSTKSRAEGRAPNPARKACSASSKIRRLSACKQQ
T10 sequence (Q7RTN6 1-431 partner): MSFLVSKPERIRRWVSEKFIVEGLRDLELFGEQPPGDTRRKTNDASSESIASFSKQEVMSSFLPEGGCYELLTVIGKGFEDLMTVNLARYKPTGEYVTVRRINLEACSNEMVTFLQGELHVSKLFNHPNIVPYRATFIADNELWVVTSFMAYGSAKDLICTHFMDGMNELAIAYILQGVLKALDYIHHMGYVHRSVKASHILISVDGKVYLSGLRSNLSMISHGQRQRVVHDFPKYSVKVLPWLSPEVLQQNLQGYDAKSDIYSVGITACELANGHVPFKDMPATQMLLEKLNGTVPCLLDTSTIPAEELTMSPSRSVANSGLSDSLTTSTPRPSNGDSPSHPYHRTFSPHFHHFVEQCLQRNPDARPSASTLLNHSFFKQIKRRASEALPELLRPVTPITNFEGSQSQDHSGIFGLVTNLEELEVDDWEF
T10 sequence (Q9Y376 1-341 partner): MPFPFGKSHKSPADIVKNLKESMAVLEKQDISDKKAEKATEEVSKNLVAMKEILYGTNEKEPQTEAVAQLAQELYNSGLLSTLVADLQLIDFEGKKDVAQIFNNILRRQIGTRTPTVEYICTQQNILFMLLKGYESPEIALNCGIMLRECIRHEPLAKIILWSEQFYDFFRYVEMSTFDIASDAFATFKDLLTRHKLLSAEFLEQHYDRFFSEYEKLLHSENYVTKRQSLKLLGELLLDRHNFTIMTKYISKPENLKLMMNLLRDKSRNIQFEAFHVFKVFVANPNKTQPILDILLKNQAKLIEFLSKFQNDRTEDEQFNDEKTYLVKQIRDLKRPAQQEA
Conditions: derived from % inhibition at 1 μM. In outline:
as §1

Our source for the IC50 and remaining activity values is patent US8703961B2, “Thiazole derivatives for the treatment of diseases such as cancer” (Merck Patent GmbH, priority 2009, dated 2014).

T9 sequence (P12931 whole entry, species assumed): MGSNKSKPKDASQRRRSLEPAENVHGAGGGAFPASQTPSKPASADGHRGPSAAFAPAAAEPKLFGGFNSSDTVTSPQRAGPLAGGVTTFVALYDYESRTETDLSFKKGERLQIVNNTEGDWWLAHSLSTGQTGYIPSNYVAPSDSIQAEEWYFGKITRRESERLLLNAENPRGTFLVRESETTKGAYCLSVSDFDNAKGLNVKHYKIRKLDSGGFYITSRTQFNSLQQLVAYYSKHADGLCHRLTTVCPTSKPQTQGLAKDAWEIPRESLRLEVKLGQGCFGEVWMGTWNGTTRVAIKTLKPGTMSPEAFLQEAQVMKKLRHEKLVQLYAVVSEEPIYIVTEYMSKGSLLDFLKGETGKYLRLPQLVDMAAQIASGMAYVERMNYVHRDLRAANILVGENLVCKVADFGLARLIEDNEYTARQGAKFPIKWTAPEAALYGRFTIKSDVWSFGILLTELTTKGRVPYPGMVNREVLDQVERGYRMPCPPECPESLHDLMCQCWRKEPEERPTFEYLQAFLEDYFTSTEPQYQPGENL
T1 sequence (P29317 24-976, species assumed): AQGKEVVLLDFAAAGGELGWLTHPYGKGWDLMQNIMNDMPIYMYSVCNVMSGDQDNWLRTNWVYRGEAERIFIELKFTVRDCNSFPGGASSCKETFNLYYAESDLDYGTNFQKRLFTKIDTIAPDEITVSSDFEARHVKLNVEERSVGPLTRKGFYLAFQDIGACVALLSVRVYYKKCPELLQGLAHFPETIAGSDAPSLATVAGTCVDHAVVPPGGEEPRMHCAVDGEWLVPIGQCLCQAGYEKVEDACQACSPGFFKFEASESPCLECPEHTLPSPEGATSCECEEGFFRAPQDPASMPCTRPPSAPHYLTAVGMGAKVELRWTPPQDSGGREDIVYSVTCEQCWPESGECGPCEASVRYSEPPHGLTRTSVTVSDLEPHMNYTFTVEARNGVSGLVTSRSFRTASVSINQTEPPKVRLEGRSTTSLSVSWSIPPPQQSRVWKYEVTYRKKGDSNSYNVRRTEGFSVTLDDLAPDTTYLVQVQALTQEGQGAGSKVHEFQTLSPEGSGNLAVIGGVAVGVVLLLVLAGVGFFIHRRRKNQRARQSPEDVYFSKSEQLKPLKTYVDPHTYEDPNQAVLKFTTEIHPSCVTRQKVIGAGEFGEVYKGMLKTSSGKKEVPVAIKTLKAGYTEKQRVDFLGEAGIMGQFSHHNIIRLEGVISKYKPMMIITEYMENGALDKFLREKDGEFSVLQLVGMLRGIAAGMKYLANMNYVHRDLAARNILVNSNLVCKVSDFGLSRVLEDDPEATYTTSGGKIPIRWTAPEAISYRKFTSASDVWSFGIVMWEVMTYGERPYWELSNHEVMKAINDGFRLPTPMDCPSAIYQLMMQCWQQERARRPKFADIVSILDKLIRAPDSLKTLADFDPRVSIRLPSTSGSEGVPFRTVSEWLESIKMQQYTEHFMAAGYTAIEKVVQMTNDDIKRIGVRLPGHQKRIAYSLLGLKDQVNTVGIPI
T6 sequence (O96013 whole entry, species assumed): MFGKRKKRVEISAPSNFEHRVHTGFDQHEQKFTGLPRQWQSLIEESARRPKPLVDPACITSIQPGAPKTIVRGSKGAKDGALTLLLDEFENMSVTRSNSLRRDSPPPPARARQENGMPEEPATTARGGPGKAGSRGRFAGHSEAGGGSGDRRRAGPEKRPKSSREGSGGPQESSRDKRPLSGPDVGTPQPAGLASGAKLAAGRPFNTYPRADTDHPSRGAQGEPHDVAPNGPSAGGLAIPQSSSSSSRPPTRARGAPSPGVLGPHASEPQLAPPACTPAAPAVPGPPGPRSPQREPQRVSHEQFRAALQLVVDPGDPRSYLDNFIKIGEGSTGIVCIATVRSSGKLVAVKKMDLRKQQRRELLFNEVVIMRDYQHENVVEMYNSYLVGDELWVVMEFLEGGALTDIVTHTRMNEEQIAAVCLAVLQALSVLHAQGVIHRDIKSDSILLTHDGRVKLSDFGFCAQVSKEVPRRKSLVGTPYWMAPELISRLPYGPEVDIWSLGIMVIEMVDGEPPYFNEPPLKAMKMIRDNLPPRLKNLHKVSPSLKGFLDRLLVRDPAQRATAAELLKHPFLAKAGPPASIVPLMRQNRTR
T4 sequence (P08581 25-1390): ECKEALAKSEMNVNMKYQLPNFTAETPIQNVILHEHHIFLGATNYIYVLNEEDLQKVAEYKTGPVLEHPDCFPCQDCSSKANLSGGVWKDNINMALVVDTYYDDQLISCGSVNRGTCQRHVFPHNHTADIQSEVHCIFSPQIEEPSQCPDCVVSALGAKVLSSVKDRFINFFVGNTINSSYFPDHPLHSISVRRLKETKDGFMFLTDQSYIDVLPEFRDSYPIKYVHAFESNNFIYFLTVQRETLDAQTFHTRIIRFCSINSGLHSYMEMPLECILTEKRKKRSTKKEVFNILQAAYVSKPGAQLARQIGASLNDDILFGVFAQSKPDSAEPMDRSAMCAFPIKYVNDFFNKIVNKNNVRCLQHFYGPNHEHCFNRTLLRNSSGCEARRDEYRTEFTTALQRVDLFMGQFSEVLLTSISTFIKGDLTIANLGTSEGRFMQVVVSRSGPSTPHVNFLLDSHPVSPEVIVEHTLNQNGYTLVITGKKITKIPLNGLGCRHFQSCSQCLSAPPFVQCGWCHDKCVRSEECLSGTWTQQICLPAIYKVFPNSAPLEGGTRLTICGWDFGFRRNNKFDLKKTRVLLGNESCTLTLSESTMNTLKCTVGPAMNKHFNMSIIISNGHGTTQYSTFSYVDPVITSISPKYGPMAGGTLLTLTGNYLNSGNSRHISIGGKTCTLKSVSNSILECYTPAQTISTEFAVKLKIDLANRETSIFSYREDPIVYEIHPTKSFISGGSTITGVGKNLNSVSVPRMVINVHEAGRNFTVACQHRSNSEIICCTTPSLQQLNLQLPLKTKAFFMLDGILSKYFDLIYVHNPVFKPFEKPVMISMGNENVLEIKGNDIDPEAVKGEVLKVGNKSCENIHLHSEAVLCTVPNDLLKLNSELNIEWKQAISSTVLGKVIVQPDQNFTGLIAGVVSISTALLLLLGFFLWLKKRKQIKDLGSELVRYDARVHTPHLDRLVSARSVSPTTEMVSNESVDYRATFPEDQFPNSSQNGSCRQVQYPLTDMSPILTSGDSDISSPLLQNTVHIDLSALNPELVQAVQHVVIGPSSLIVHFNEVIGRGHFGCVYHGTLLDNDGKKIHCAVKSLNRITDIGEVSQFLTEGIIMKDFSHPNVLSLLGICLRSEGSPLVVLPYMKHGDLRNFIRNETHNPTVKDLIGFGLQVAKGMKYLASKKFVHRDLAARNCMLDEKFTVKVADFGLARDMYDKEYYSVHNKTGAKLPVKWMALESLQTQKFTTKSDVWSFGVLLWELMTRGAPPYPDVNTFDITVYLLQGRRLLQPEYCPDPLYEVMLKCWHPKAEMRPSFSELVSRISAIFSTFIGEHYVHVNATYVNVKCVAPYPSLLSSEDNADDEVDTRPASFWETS
T2 sequence (Q16584 whole entry, species assumed): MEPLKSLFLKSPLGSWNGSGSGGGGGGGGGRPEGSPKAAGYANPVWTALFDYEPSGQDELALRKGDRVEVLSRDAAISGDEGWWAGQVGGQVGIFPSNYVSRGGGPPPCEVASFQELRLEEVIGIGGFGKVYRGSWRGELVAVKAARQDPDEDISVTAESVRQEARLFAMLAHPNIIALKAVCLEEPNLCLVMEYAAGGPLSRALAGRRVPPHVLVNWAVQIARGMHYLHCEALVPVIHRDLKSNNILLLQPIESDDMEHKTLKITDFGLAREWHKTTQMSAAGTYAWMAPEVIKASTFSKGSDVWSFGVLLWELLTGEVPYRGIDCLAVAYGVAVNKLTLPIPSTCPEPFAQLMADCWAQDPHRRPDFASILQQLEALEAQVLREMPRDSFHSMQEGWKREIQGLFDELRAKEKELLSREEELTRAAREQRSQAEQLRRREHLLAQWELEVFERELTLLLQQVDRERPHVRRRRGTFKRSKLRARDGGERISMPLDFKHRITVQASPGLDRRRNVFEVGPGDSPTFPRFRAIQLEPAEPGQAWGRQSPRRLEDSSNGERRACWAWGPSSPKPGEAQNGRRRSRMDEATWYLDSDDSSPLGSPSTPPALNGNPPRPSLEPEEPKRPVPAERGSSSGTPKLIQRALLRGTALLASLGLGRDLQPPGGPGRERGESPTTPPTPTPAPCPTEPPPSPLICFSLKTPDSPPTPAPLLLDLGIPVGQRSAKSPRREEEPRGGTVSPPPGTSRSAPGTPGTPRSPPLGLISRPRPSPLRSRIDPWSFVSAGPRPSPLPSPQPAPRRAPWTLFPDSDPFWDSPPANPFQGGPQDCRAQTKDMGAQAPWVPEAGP
T5 sequence (Q9P289 whole entry, species assumed): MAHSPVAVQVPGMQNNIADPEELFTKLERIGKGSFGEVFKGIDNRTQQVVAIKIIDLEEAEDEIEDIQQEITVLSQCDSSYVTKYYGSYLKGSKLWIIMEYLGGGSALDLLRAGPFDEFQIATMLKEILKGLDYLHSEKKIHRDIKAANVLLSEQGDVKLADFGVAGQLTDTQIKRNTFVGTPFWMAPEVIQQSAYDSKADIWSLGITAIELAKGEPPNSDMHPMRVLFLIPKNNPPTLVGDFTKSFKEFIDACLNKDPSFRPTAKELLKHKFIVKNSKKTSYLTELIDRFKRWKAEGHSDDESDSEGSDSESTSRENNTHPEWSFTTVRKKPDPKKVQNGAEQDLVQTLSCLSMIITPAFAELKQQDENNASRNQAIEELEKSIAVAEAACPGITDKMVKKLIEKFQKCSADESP
T7 sequence (P11309 whole entry, species assumed): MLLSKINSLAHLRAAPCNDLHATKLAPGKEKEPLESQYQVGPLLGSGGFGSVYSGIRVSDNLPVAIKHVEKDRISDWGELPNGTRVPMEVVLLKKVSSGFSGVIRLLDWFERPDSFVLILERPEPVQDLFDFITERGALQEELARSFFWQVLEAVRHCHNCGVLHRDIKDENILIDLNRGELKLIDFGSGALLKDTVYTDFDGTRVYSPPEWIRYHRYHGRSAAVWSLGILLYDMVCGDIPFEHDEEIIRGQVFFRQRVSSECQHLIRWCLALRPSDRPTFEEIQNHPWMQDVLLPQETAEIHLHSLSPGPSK

Broadly, the IC50 is the concentration that inhibits the measured activity by half. Consider `Nc1ncsc1C#Cc1cccc(O)c1` [Compound A27, 3-(4-aminothiazol-5-ylethynyl)phenol], for which the IC50 is above 1 µM on EPHA2; 10 to 100 µM at MAP3K11 (MLK3); 10 to 100 µM at MAPKAPK5; 10 to 100 µM on MET; above 1 µM on MST4; above 1 µM at PAK4 (PAK-4). The IC50 was 1 to 10 µM on PIM1, 1 to 10 µM at PRKACA, 1 to 10 µM on SRC and above 1 µM at STK11.
For `CC(C)(C)OC(=O)Nc1ncsc1C#CCN1C(=O)c2ccccc2C1=O` [Compound A26, tert-butyl{5-[3-(1,3-dioxo-1,3-dihydroisoindol-2-yl)prop-1-ynyl]-thiazol-4-yl}carbamate], the half-inhibitory concentration (IC50) on EPHA2 is above 1 µM; on MAP3K11 (MLK3), 1 to 10 µM; at MAPKAPK5, 1 to 10 µM; at MET, above 1 µM; on MST4, 10 to 100 µM; on PAK4 (PAK-4) it was 1 to 10 µM. In addition, the IC50 on PIM1, on PRKACA, at SRC and at STK11 was 10 to 100 µM in each case.
Consider `CC(C)(C)OC(=O)Nc1nc(-c2ccncc2)sc1C#CCN1CCOCC1` [Compound A25, tert-butyl[5-(3-morpholin-4-ylprop-1-ynyl)-2-pyridin-4-ylthiazol-4-yl]-carbamate], for which the IC50 at EPHA2, at MAP3K11 (MLK3), on MAPKAPK5, on MET, on MST4 and at PAK4 (PAK-4) was above 1 µM in each case. Further, the IC50 at PIM1 was above 1 µM; on PRKACA it was above 1 µM; on SRC it was 1 to 10 µM; on STK11, above 1 µM.
As for `c1ccc(Cc2c[nH]c3ncsc23)cc1` [Compound A7, 6-benzyl-4H-pyrrolo[2,3-d]thiazole], the IC50 at EPHA2 is 10 to 100 µM; at MAP3K11 (MLK3), 10 to 100 µM; on MAPKAPK5, above 1 µM; at MET, 1 to 10 µM; at MST4, above 1 µM; on PAK4 (PAK-4) it was above 1 µM. Moreover, the IC50 at PIM1 is 10 to 100 µM; on PRKACA, above 1 µM; on SRC it was 1 to 10 µM; on STK11, 10 to 100 µM.
Consider `Nc1ncsc1C#Cc1cnc2[nH]ccc2c1` [Compound A22, 5-(1H-pyrrolo[2,3-b]pyridin-5-ylethynyl)thiazol-4-ylamine], for which the IC50 is above 1 µM on EPHA2; 0.01 to 1 µM on MAP3K11 (MLK3); 10 to 100 µM on MAPKAPK5; above 1 µM at MET; 1 to 10 µM on MST4; 0.01 to 1 µM at PAK4 (PAK-4). Further, the half-inhibitory concentration (IC50) at PIM1 was 1 to 10 µM; at PRKACA, 1 to 10 µM; at SRC it was 10 to 100 µM; at STK11, above 1 µM. For the same compound, the remaining activity at 1 µM came to 23% on MAP3K11 (MLK3) (read-out: residual kinase activity MLK3) and 34% at PAK4 (PAK-4) (read-out: residual kinase activity PAK-4).
